# Data reported in patent US20100168120A1, “SALTS OF PYRIDAZINE COMPOUNDS” (NEUROMEDIX INC., priority 2006, published 2010).
# Entries after “also recorded” stand apart in the source; their conditions may differ. Read-outs that look alike come from different tables or passages of the source.
# What was measured:
# [1] = In vitro metabolic stability in rat liver microsomes; type: in vitro ADME; details: 5 μM or 25 μM, 10 or 30 min
# Experimental: (§1) In particular FIG. 3 are bar graphs showing that MW01-9-034WH has improved metabolic stability in rat (A) and human (B) liver microsome incubations compared to minaprine. […] Extracts were prepared, and the amount of compound remaining was analyzed by HPLC using internal standards for recovery.
# [2] = In vitro metabolic stability in human liver microsomes; type: in vitro ADME; details: 5 μM or 25 μM, 10 or 30 min
# Experimental: as §1
# [3] = logP by octanol/water partition coefficient
# NO production = assay: Inhibition of NO production (glial activation); type: cell-based; details: read-out: NO, concentration required for 50% inhibition
# IL-1β production = assay: Inhibition of IL-1β production (glial activation); type: cell-based; details: in words
# [4] = Chemical stability in water, dilute acid or dilute base; type: physicochemical; details: dilute acid, or dilute base at 37° C. over one week
# in vivo = assay: in vivo
# Experimental: Plasma samples obtained from dog pharmacokinetic studies were analyzed using reversed phase HPLC with tandem mass spectrometric detection. Briefly, aliquots of internal standard (200 μl of 200 ng/ml) were added to protein precipitation plates (Sirocco protein precipitation plates, Waters Corporation, Milford, Mass., USA), followed by addition of plasma sample to the plate (50 μl). The plate was shaken for 3 minutes, and then a vacuum (maximum of −10 mm Hg) was applied to the plate for 3 minutes. Extract (75 μl) was transferred into a 2 ml 96-well plate, and to each sample was added 1425 μl of Eluent A (95:5:0.1 MilliQ water:acetonitrile:formic acid). 10 μl was injected onto the reverse phase column (ODS C18; 4×2 mm i.d.; Phenomenex, Torrance, USA). The mobile phase was set to 300 μl/min and eluate by mass spectrometry (APT 5000, Applied Biosystems). Calibration standards were processed along with the samples, and the concentration of Minozac [2-(4-(4-methyl-6-phenylpyridazin-3-yl)piperazin-1-yl)pyrimidine dihydrochloride salt] determined using a regression equation. […] The internal standard was compound code MW01-8-064WH (chemical name: 4-methyl-3-phenyl-6-((4-pyrimidin-2-yl)piperazin-1-yl)pyridazine).
# The pharmacokinetics of Minozac was determined at 2.5 mg/kg following oral administration by gavage of an aqueous solution.
# Intravenous dosing was also carried out at 2.5 mg/kg, but with drug in a 0.9% saline solution.
# The pharmacokinetics were determined following oral dosing with a neutralized propylene glycol formulation (FIG. 6) and with filled gelatin capsules at a single dose of 2.5 mg/kg (FIG. 7).
# LPS inflammation model = assay: Systemic proinflammatory cytokine expression after LPS challenge; type: in vivo, mouse; details: 15 mg/kg orally for 14 days, LPS challenge day 15, serum at 6 hours
# Experimental: The effect of Minozac on the systemic expression of proinflammatory cytokines was determined. Briefly, saline (0.9% NaCL) or Minozac (15 mg/kg) was administered orally for 14 days. Mice were challenged with LPS at the 15th day. Mice were sacrificed at 6 hours after LPS challenge and blood harvested for serum. The levels of cytokines TNFα and […] in the serum were measured using the Meso-scale Discovery system according to manufacturer's instructions. The data for TNFα and IL-1β are shown in FIG. 4 as percent of the level observed in the saline treated mice.
# physchem = details: 37 °C, water, aqueous solubility
# [5] = tested on: human amyloid-beta (Aβ)-induced injury; assay: AD-relevant mouse model of human Aβ-induced injury (Aβ infusion model); type: in vivo; details: hippocampus, […] oral once daily for 2 weeks, dihydrochloride salt
# Experimental: The efficacy of Minozac in an AD-relevant mouse model of human amyloid-beta (Aβ)-induced injury (infusion of human Aβ peptide) was determined. Briefly, C57BL/6 mice (n=5-10 mice per group) were subjected to either vehicle (Control) or human oligomeric Aβ1-42 intracerebroventricular (ICV) infusion for four weeks. […] Beginning at day 50 after the start of Aβ ICV infusion, the Y-maze test of spontaneous alternation was used to evaluate hippocampus-dependent spatial learning deficits. At day 60 after the start of Aβ ICV infusion, mice were sacrificed, perfused with buffer containing a protease inhibitor cocktail, and the brain was harvested. The brain was longitudinally bisected and the right half of the brain used for histology. The hippocampus was dissected from the left half of the brain. The levels of IL-1β, TNFα, S100B and synaptophysin were measured in hippocampal extracts by ELISA, and postsynaptic density-95 ([…]) levels were determined by Western blotting. Immunohistochemical detection of GFAP-positive astrocytes and F4/80 positive microglia was performed on 10 μm sections.
# [6] = PK assessment in mice, plasma and brain after single oral dose; details: C57BL/6, mouse
structure (smiles),measurement,setting,value
"Cc1cc(-c2ccccc2)nnc1NCCN1CCOCC1 [minaprine, reference compound]","metabolic stability, compound remaining",[1],majority of minaprine is gone by 10 min
same,"metabolic stability, compound remaining",[2],majority of minaprine is gone by 10 min
"c1ccc(-c2cc(-c3ccccc3)c(N3CCN(c4ncccn4)CC3)nn2)cc1 [Compound 1, 4,6-diphenyl-3-(4-pyrimidin-2-ylpiperazin-1-yl)pyridazine]",logP,[3]; octanol/water,2.3
same,IC50,NO production,> 25 µM
"Cc1cc(-c2ccccc2)nnc1N1CCN(c2ncccn2)CC1 [Compound 5, 4-methyl-6-phenyl-3-(4-pyrimidin-2-ylpiperazin-1-yl)pyridazine]",selective suppression of IL-1 production compared to NO production,IL-1β production,retained selective suppression
same,IC50,NO production,> 25 µM
"Cc1cc(-c2ccccc2)nnc1N1CCN(c2ncccn2)CC1.Cl.Cl [Compound 16, 2-(4-(4-methyl-6-phenylpyridazin-3-yl)piperazin-1-yl)pyrimidine dihydrochloride salt]",loss of material (chemical stability),[4],less than 10%
same,Vd,"in vivo; Beagle, dog, iv, […], Vss",44.5 ± 10.3 L
same,Vd,"in vivo; Beagle, dog, iv, […], Vz",95.1 ± 43.6 L
same,half-life,"in vivo; in vivo, iv, […]",269 min
same,bioavailability,"in vivo; in vivo, po, […]",23%
same,half-life,"in vivo; in vivo, po, […]",126 min
same,bioavailability,"in vivo; male, Beagle, dog",16%
same,bioavailability,"in vivo; male, Beagle, dog, po",21%
same,half-life,"in vivo; male, Beagle, dog, po, […], t1/2",88.2 min
same,logP,[3],2.29
same,logP,[3]; octanol/water,2.7
same,"metabolic stability, compound remaining",[1],stable even after 30 min incubation
same,systemic (serum) expression of IL-1β,LPS inflammation model,no effect
same,systemic (serum) expression of TNFα,LPS inflammation model,no effect
same,solubility,physchem,> 322 mg/mL
same,"metabolic stability, compound remaining",[2],stable even after 30 min incubation
same,number of activated F4/80-positive microglia,[5],reduced
same,number of activated F4/80-positive microglia,[5]; listed as MW01-9-034WH,decreases
same,number of activated F4/80-positive microglia,[5]; listed as Minozac,reduced
same,Tmax,[6]; brain,~15 min
same,half-life,[6]; brain,~45 min
same,half-life,[6]; plasma,~15 min
Cc1cc(-c2ccccc2)nnc1N1CCN(c2ncccn2)CC1.Cl.Cl [Compound 6],selective suppression of IL-1 production compared to NO production,IL-1β production,lost selectivity
Cc1cc(-c2ccccc2)nnc1N1CCN(C)CC1 [Compound 11],activity (suppression of proinflammatory cytokine production in glia),IL-1β production,loss of activity; also recorded: diminution of activity
